How the values were obtained:
[1] = test system: Boophilus microplus; assay: Boophilus microplus test (BOOPMI injection), Example 1; format: in vivo; settings: application rate 20 μg/animal, injected into abdomen, after 7 days
In short: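 Compound in DMSO, diluted with water, injected into the abdomen of engorged ticks, which were then held in a climate-controlled room. Efficacy was scored after 7 days from fertile egg laying, with 100% meaning no tick laid fertile eggs.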

[2] = test system: Ctenocephalides felis; assay: Ctenocephalides felis oral (CTECFE), Example 2; format: in vivo; settings: application rate 20 ppm in citrated cow's blood, after 2 days
In short: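 Compound in DMSO diluted into citrated cow's blood, offered to 20 unfed adult C. felis through a Parafilm membrane. Kill rate (%) scored after 2 days; 100% means all fleas dead.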

[3] = test system: Lucilia cuprina larvae; assay: Lucilia cuprina test (LUCICU), Example 3; format: in vivo; settings: application rate 20 ppm, treated horsemeat, after 2 days
In short: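 Horsemeat treated with a water dilution of a DMSO formulation of active ingredient was populated with Lucilia cuprina larvae. Kill rate in % read after 2 days; 100% means all larvae killed, 0% none.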

[4] = test system: Musca domestica adults; assay: Musca domestica test (MUSCDO), Example 4; format: in vivo; settings: application rate 20 ppm, treated sponge, after 2 days
Protocol: Musca domestica Test (MUSCDO) • Solvent: dimethyl sulphoxide To prepare an active ingredient formulation, 10 mg of active ingredient are mixed with 0.5 ml of dimethyl sulphoxide, and the concentrate is diluted with water to the desired concentration. Vessels containing a sponge which has been treated with the active ingredient formulation of the desired concentration are populated with Musca domestica adults. After 2 days, the kill rate in % is determined. 100% means that all flies were killed; 0% means that no flies were killed.

[5] = test system: Boophilus microplus; assay: Boophilus microplus test (BOOPMI injection), Example 11; format: in vivo; settings: application rate 20 μg/animal, injected into abdomen, after 7 days
In short: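 Adult ticks injected in the abdomen with compound diluted in DMSO, then held in a climate-controlled room. Efficacy in % determined after 7 days from fertile eggs laid; 100% means no tick laid fertile eggs.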

[6] = test system: Musca domestica adults; assay: Musca domestica test (MUSCDO), Example 14; format: in vivo; settings: application rate 100 ppm, treated sponge, after 2 days
In short: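 Compound dissolved in DMSO and diluted in water to the test concentration, then applied to a sponge in vessels holding adult flies. Percent kill scored after 2 days (100% = all flies dead).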

[7] = logP by HPLC on reverse-phase column (EEC Directive 79/831 Annex V.A8); format: physicochemical; settings: HPLC-MS
Protocol: The logP values reported in the above Tables and Preparation Examples were determined according to EEC Directive 79/831 Annex V.A8 by HPLC (High Performance Liquid Chromatography) on a reverse-phase column (C18). Temperature 43° C.

CC(NC(=O)c1ccc(/C=C/C(=O)NC(c2cccc(C(F)(F)F)c2)C(F)(F)F)cc1C(F)(F)F)C(F)(F)F (stereo not shown) [Ia-30]
efficacy in % (fertile eggs laid) [1]: 100%
kill rate in % (efficacy) [2]: 100%
kill rate in % (efficacy) [3]: 100%
kill rate in % (efficacy) [4]: 85%
efficacy in % (fertile eggs laid) [5]: 100%
kill rate in % (efficacy) [6]: 100%
logP [7]: HPLC-MS: logP = 3.58; mass
